{"source": "patent US20150181873A1", "about": "“HERBICIDE-RESISTANT SUNFLOWER PLANTS, POLYNUCLEOTIDES ENCODING HERBICIDE=RESISTANT ACETO HYDROXY ACID SYNTHASE LARGE SUBUNIT PROTEINS, AND METHODS OF USE” (NIDERA S.A., priority 2013, published 2015)", "key": {"[1]": {"tested_on": "Sunflower line S4897", "assay": "Greenhouse spray injury rating, line S4897", "type": "in vivo, Helianthus annuus", "description": "(§1) Sunflower lines S4897, Clearfield® sunflower varieties A, B, C and a conventional non-Clearfield variety were sprayed with three rates of imazamox (Raptor™), 100, 200 and 300 gm ai/ha plus 0.5% Sun It II and two rates of imazapyr (Arsenal™) 160 and 360 gm ai/ha plus 0.5% Sun It II when the plants were at the two to three leaf stage. Ratings were taken at 14 days after application (DAT) for injury. Injury was rated on a scale from 0 to 9 where 0=no injury to 9=dead plant. Twelve plants were sprayed per herbicide/rate treatment. Statistical analysis was conducted with STATGRAPHICS Plus 5.0 by using ANOVA and LSD procedures.\n(§2) After plants were sprayed, it was realized that a height difference between S4897 and other sunflower varieties would have impacted the actual herbicide dose that was delivered. The spray boom height had been calibrated against S4897 and since the other varieties were taller and closer to the boom they would have received a greater dose of herbicide. Rates were recalibrated for the other varieties to determine the approximate dose they would have received. Assessments were made as presented in Table 2 since it was not possible to make a direct rate comparison due to the effect of the height. For example injury scores were compare for S4897 treated imazamox rate 100 gm ai/ha to the other varieties treated at 75 gm ai/ha. The treatment dose of 300 gm ai/ha for line S4897 was equivalent to the treatment of 200 gm ai/ha for the other varieties, which […]."}, "[2]": {"tested_on": "Clearfield sunflower variety A", "assay": "Greenhouse spray injury rating, Clearfield variety A", "type": "in vivo, Helianthus annuus", "description": "as §1, §2"}, "[3]": {"tested_on": "Clearfield sunflower variety B", "assay": "Greenhouse spray injury rating, Clearfield variety B", "type": "in vivo, Helianthus annuus", "settings": "scale 0-9", "description": "as §1, §2"}, "[4]": {"tested_on": "Clearfield sunflower variety C", "assay": "Greenhouse spray injury rating, Clearfield variety C", "type": "in vivo, Helianthus annuus", "settings": "scale 0-9", "description": "as §1, §2"}, "[5]": {"tested_on": "Conventional non-Clearfield sunflower variety", "assay": "Greenhouse spray injury rating, conventional variety", "type": "in vivo, Helianthus annuus", "settings": "scale 0-9", "description": "as §1, §2"}, "[6]": {"tested_on": "AHAS of S4897 sunflower (Ala107-to-Thr AHASL1)", "assay": "AHAS activity analysis of young leaves", "type": "biochemical, Helianthus annuus", "settings": "S4897 vs Clearfield and conventional non-Clearfield variety; higher concentration of imazamox (FIG. 7)", "experimental": "FIG. 7 is graphical illustration of a comparison of the inhibition of AHAS by Raptor for a non-Clearfield variety, a Clearfield variety and S4897 sunflower plants as described in Example 5.\nFIG. 8 is graphical illustration of a comparison of the inhibition of AHAS by Glean for a non-Clearfield variety, a Clearfield variety and S4897 sunflower plants as described in Example 5.\nAHAS activity analysis was also conducted by selecting actively growing young leaves from plants that were not sprayed with herbicide at approximately four weeks after planting."}, "[7]": {"tested_on": "wild-type sunflower plants", "assay": "Greenhouse imazamox spray test (FIG. 3/4), wild-type", "type": "in vivo, Helianthus annuus", "settings": "imazamox 100 or 200 g ai/ha", "experimental": "(§3) The S4897 and IMISUN-1 sunflower plants were spray-treated with imazamox at rate of 200 g ai/ha. […] The photograph was taken a few days after the plants were spray treated.\n(§4) FIG. 4 is graphical illustration of herbicide injury in a greenhouse test following the spray treatment of IMISUN-1, wild-type, and S4897 sunflower plants with imazamox at either 100 (light columns) or 200 g ai/ha (dark columns). […] Herbicide injury was evaluated 17 days after the imazamox application."}, "[8]": {"tested_on": "S4897 sunflower plants", "assay": "Greenhouse imazamox spray test (FIG. 3/4), S4897", "type": "in vivo, Helianthus annuus", "settings": "S4897 vs IMISUN-1 and wild-type; imazamox 100 and 200 g ai/ha; 17 days after application", "experimental": "as §3, §4"}, "[9]": {"tested_on": "S4897 plants", "assay": "Field trial of resistance to imazapic", "type": "in vivo, Helianthus annuus", "settings": "S4897 vs IMISUN-1 (Ala190-to-Val); field trials in Argentina; no data presented", "experimental": "In field trials in Argentina, S4897 plants were tested for resistance to imazapic. […] This trial had single row plots and was treated on a windy day, so the actual herbicide dose reaching the plants was likely less than was applied."}, "[10]": {"settings": "imazamox 300 gm ai/ha, scale 0-9"}}, "data": [{"compound": "COCc1cnc(C2=NC(C)(C(C)C)C(=O)N2)c(C(=O)O)c1", "note": "(stereo not shown) [Imazamox, imazamox]", "values": [{"measurement": "Injury at 14 DAT", "setting": "[1]; imazamox 100 gm ai/ha (100/75), scale 0=no injury to 9=dead plant", "value": 0.5, "unit": "a"}, {"measurement": "Injury at 14 DAT", "setting": "[1]; imazamox 200 gm ai/ha (column 200/150), scale 0-9", "value": 0.8, "unit": "a"}, {"measurement": "Injury at 14 DAT", "setting": "[1]; imazamox 200 gm ai/ha (column 200/150), scale 0-9, listed as imazamox", "value": "little to no injury"}, {"measurement": "Injury at 14 DAT", "setting": "[1]; [10]", "value": 0.8, "unit": "a"}, {"measurement": "Injury at 14 DAT", "setting": "[1]; imazamox 300 gm ai/ha, scale 0-9, listed as imazamox", "value": "very little injury"}, {"measurement": "Injury at 14 DAT", "setting": "[2]; imazamox 75 gm ai/ha (100/75), scale 0-9", "value": 4.3, "unit": "c"}, {"measurement": "Injury at 14 DAT", "setting": "[2]; imazamox 150 gm ai/ha (column 200/150), scale 0-9", "value": 4.6, "unit": "c"}, {"measurement": "Injury at 14 DAT", "setting": "[2]; imazamox 150 gm ai/ha (column 200/150), scale 0-9, listed as imazamox", "value": "significantly in juried and had stopped growing"}, {"measurement": "Injury at 14 DAT", "setting": "[2]; [10]", "value": 6.5, "unit": "days"}, {"measurement": "Injury at 14 DAT", "setting": "[3]; imazamox 75 gm ai/ha (100/75)", "value": 1.9, "unit": "b"}, {"measurement": "Injury at 14 DAT", "setting": "[3]; imazamox 150 gm ai/ha", "value": 4.8, "unit": "c"}, {"measurement": "Injury at 14 DAT", "setting": "[3]; imazamox 300 gm ai/ha", "value": 5.3, "unit": "c"}, {"measurement": "Injury at 14 DAT", "setting": "[4]; imazamox 75 gm ai/ha (100/75)", "value": 1.8, "unit": "b"}, {"measurement": "Injury at 14 DAT", "setting": "[4]; imazamox 150 gm ai/ha", "value": 2.9, "unit": "b"}, {"measurement": "Injury at 14 DAT", "setting": "[4]; imazamox 300 gm ai/ha", "value": 4.6, "unit": "b"}, {"measurement": "Injury at 14 DAT", "setting": "[5]; imazamox 75 gm ai/ha (100/75)", "value": 7.2, "unit": "days"}, {"measurement": "Injury at 14 DAT", "setting": "[5]; imazamox 150 gm ai/ha", "value": 8.2, "unit": "days"}, {"measurement": "Injury at 14 DAT", "setting": "[5]; imazamox 300 gm ai/ha", "value": 8.7, "unit": "e"}, {"measurement": "inhibition of AHAS activity", "setting": "[6]", "value": "less inhibition"}, {"measurement": "survival following spray treatment", "setting": "[7]", "value": "did not survive"}, {"measurement": "herbicide injury / resistance or tolerance", "setting": "[8]", "value": "significantly greater resistance or tolerance"}]}, {"compound": "Cc1cnc(C2=NC(=O)C(C)(C(C)C)N2)c(C(=O)O)c1", "note": "(stereo not shown) [imazapic]", "values": [{"measurement": "resistance to imazapic", "setting": "[9]", "value": "clearly superior"}]}]}
